According to patent US9546138B2, “Pyridone derivatives and uses thereof in the treatment of tuberculosis” (priority 2012, dated 2017):

Columns and labels:
[1] = tested on: Mtb H37Rv resistant mutant 529-5X-108-S1 (inhA D148G); type: cell-based, Mycobacterium tuberculosis
[2] = tested on: Mtb H37Rv resistant mutant 529-5X-108-B2 (inhA S94A); type: cell-based, Mycobacterium tuberculosis
[3] = tested on: Mtb H37Rv resistant mutant 529-5X-108-S3 (inhA D148G); type: cell-based, Mycobacterium tuberculosis
[4] = tested on: Mtb H37Rv resistant mutant 529-5X-108-B4 (inhA G96V); type: cell-based, Mycobacterium tuberculosis
[5] = tested on: Mtb H37Rv resistant mutant 529-10X-108-B6; type: cell-based, Mycobacterium tuberculosis
[6] = tested on: Mtb H37Rv resistant mutant 529-10X-107-B8 (inhA D148E); type: cell-based, Mycobacterium tuberculosis
[7] = tested on: BCG-529-108-10X-2 (InhA M161V); type: cell-based, M bovis BCG
[8] = tested on: BCG-916-108-25X-B1 (InhA M161I); type: cell-based, M bovis BCG

SMILES | Compound MIC50 [1] | Compound MIC50 [2] | Compound MIC50 [3] | Compound MIC50 [4] | Compound MIC50 [5] | Compound MIC50 [6] | Compound MIC50 [7] | Compound MIC50 [8]
CC1(C)CCC(Cc2cc(O)c(-c3ccccc3)c(=O)[nH]2)CC1 [PD10, 6-((4,4-dimethylcyclohexyl)methyl)-4-hydroxy-3-phenylpyridin-2(1H)-one] | 0.29 µM | 0.78 µM | 0.38 µM | >5.0 µM | >5.0 µM | >5.0 µM | 3.02 µM | 3.2 µM
CCc1cc(C(N)=S)ccn1 [Ethionamide, reference compound] | 1.53 µM | 9.74 µM |  | 1.32 µM | 1.41 µM | 1.91 µM | >60 µM | >60 µM
NNC(=O)c1ccncc1 [Isoniazid, isoniazid, reference compound] | 0.15 µM | 0.86 µM | 0.15 µM | 0.09 µM | 0.11 µM | 0.31 µM | 1.27 µM | 1.48 µM
CC(C)Cc1cc(O)c(-c2ccccc2)c(=O)[nH]1 [PD12, 4-hydroxy-6-isobutyl-3-phenylpyridin-2(1H)-one] | >40 µM | >40 µM | >40 µM | >40 µM | >40 µM | >40 µM | 27.88 µM | 21.52 µM
O=c1[nH]c(CC2CCCCC2)cc(O)c1-c1ccccc1 [PD2, 6-(cyclohexylmethyl)-4-hydroxy-3-phenylpyridin-2(1H)-one] | 1.46 µM | 4.04 µM | 1.73 µM | 14.60 µM | >40 µM | >40 µM |  | 
